The source of these data is patent US9029359B2, “Heteroaryl Btk inhibitors” (Biogen Idec MA, Inc., priority 2009, dated 2015).

The target in the assay is T1, BTK (Homo sapiens, UniProt Q06187).
T1 construct: purchased Upstate 14-552
Briefly: In vitro BTK kinase assay: BTK-POLYGAT-LS ASSAY. In kind it is biochemical. The following applies: ATP 10 uM. A digest of the protocol: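 BTK phosphorylation of polyGAT (100 nM final) with ATP at 10 μM final, 10 mM Tris-HCl pH 7.5 kinase buffer, quenched by EDTA after 30 min. Potency given as IC50.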

T1 sequence (Q06187 whole entry): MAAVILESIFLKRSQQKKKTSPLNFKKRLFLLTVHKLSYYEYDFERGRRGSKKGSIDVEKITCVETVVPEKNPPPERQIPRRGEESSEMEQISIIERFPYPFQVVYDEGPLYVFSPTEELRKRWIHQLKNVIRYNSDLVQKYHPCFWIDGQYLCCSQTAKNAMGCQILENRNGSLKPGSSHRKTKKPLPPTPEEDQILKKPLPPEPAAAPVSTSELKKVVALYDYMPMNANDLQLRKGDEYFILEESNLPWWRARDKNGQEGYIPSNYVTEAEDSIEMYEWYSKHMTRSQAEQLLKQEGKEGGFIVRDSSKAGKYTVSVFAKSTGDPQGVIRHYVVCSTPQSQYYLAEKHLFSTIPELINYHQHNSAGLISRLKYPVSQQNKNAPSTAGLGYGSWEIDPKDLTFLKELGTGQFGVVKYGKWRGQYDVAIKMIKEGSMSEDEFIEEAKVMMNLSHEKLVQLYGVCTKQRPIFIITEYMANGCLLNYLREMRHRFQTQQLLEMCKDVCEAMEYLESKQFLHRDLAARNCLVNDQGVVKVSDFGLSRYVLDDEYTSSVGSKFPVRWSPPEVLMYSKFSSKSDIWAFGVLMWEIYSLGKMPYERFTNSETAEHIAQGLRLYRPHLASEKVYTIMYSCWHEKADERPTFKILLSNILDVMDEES

`CCN(C)S(=O)(=O)c1ccccc1NCC(=O)N[C@@H]1CCCN(c2ncnc3[nH]ccc23)C1` [Example 207] showed an IC50 of less than 0.1 µM.
In the case of `O=C(CNc1ccccc1S(=O)(=O)c1ccccc1)N[C@@H]1CCCN(c2ncnc3[nH]ncc23)C1` [Example 163], the IC50 was less than 0.1 µM.
In the case of `O=C(CNc1cccc(-c2cccs2)c1)N[C@@H]1CCCN(c2ncnc3[nH]ccc23)C1` [Example 305], the half-inhibitory concentration (IC50) lay within 0.1 to 0.999 µM.
Then `Cc1cccc(NCC(=O)N[C@@H]2CCCN(c3ncnc4[nH]ccc34)C2)c1` [Example 237], with 0.1 to 0.999 µM; and `CNS(=O)(=O)c1ccccc1NCC(=O)N[C@@H]1CCCN(c2ncnc3[nH]ccc23)C1` [Example 457], with 1 to 10 µM; and `Cc1nccc(-c2cccc(NCC(=O)N[C@@H]3CCCN(c4ncnc5[nH]ccc45)C3)c2)n1` [Example 436], with 1 to 10 µM.
The same measure for `CS(=O)(=O)c1ccccc1NCC(=O)N[C@@H]1CCCN(c2ncnc3[nH]ccc23)C1` [Example 450]: 1 to 10 µM.
Then `COc1ccc(Cl)cc1NCC(=O)N[C@@H]1CCCN(c2ncnc3[nH]ccc23)C1` [Example 312], with 0.1 to 0.999 µM; and `CC(C)c1ccccc1N[C@@H](C(=O)N[C@@H]1CCCN(c2ncnc3[nH]ccc23)C1)C(C)(C)C` [Example 300], with 0.1 to 0.999 µM.
The molecule `O=C(CNc1ccccc1)N[C@@H]1CCN(c2ncnc3[nH]ccc23)C1` [Example 360] returned an IC50 of more than 10 µM.
The same measure for `O=C(CNc1cccc2c1OCCO2)NC1CCCN(c2ncnc3[nH]ccc23)C1` (stereo not drawn) [Example 336]: more than 10 µM; for `O=C(CNc1cccc(Br)c1)NC1CCCN(c2ncnc3[nH]ccc23)C1` (stereo not drawn) [Example 40, (N-(1-(7H-pyrrolo[2,3-d]pyrimidin-4-yl)piperidin-3-yl)-2-(3-bromophenylamino)acetamide)]: less than 0.1 µM.
`O=C([C@H](Nc1cc(F)cc(Cl)c1)C1CC1)N1CCCCC12CCCN(c1ncnc3[nH]ncc13)C2` (stereo partly drawn) [Example 373]: the IC50 was 1 to 10 µM.
The same measure for `O=C(CNc1cccc(OC(F)(F)C(F)F)c1)N[C@@H]1CCCN(c2ncnc3[nH]ccc23)C1` [Example 441]: 0.1 to 0.999 µM.
Take `O=C(CNc1cc(C(F)(F)F)ccc1F)NC1CCCN(c2ncnc3[nH]ccc23)C1` (stereo not drawn) [Example 69, (N-(1-(7H-pyrrolo[2,3-d]pyrimidin-4-yl)piperidin-3-yl)-2-(2-fluoro-5-(trifluoromethyl)phenylamino)acetamide)]: the IC50 was 1 to 10 µM.
The same measure for `CC(C)Oc1ccccc1NCC(=O)N[C@@H]1CCCN(c2ncnc3[nH]ncc23)C1` [Example 367]: 0.1 to 0.999 µM; for `O=C(N[C@@H]1CCCN(c2ncnc3[nH]ccc23)C1)[C@@H](CO)Nc1cc(F)cc(Cl)c1` [Example 424]: 1 to 10 µM; for `Cc1c(Cl)cccc1NCC(=O)N[C@@H]1CCCN(c2ncnc3[nH]ccc23)C1` [Example 261]: 0.1 to 0.999 µM.
The same measure for `O=C(CNc1cccc2c1CCCC2)N[C@@H]1CCCN(c2ncnc3[nH]ccc23)C1` [Example 254]: less than 0.1 µM; for `CC(C)CC[C@@H](Nc1ccccc1)C(=O)N[C@@H]1CCCN(c2ncnc3[nH]ccc23)C1` [Example 122, (R)—N—((R)-1-(7H-pyrrolo[2,3-d]pyrimidin-4-yl)piperidin-3-yl)-5-methyl-2-(phenylamino)hexanamide]: 1 to 10 µM; for `C[C@H](O)[C@@H](Nc1ccccc1)C(=O)N[C@@H]1CCCN(c2ncnc3[nH]ccc23)C1` [Example 111, (2R,3S)—N—((R)-1-(7H-pyrrolo[2,3-d]pyrimidin-4-yl)piperidin-3-yl)-3-hydroxy-2-(phenylamino)butanamide]: 0.1 to 0.999 µM.
As for `O=C(NC1CCCCN(c2ncnc3[nH]ncc23)C1)[C@H](Nc1cc(F)cc(Cl)c1)C1CC1` (stereo partly drawn) [Example 184], the IC50 is less than 0.1 µM.
Then `Cc1cccc(Cl)c1NCC(=O)N[C@@H]1CCCN(c2ncnc3[nH]ccc23)C1` [Example 407], with 1 to 10 µM; and `CC(C)CN(CC(C)C)S(=O)(=O)c1ccccc1NCC(=O)N[C@@H]1CCCN(c2ncnc3[nH]ncc23)C1` [Example 186], with less than 0.1 µM.
In turn, `CC(C)(C)c1ccccc1NCC(=O)NC1CCCN(c2ncnc3[nH]ccc23)C1` (stereo not drawn) [Example 17, (N-(1-(7H-pyrrolo[2,3-d]pyrimidin-4-yl)piperidin-3-yl)-2-(2-tert-butylphenylamino)acetamide)] registered an IC50 of 1 to 10 µM.
Then `CC(C)c1ccccc1NCC(=O)N[C@@H]1CCCN(c2ncnc3[nH]ccc23)C1` [Example 210], with less than 0.1 µM; and `O=C(CNC(=O)N1CCCCC1)NC1CCCN(c2ncnc3[nH]ccc23)C1` (stereo not drawn) [Example 330], with more than 10 µM.
